From ChEMBL document CHEMBL3792384, “Design, synthesis and bioactivity of novel phthalimide derivatives as acetylcholinesterase inhibitors” (Bioorg Med Chem Lett, 2016)
Calls of active or inactive are those of the source. The rule behind the calls is not given here.

Experiments:
Acetylcholinesterase = Acetylcholinesterase (Electrophorus electricus, UniProt O42275); assay: Inhibition of electric eel AChE preincubated for 15 mins followed by addition of acetylthiocholine iodide substrate by Ellman's method-based spectrophotometric analysis
Cholinesterase = Cholinesterase (Equus caballus, UniProt P81908); assay: (§1) Inhibition of equine serum BChE using butyrylthiocholine iodide as substrate by Ellman's method-based spectrophotometric analysis
[1] = target: Cholinesterase (Equus caballus) (UniProt P81908); assay: as §1
Cholinesterase (Equus caballus), sequence (P81908 whole entry): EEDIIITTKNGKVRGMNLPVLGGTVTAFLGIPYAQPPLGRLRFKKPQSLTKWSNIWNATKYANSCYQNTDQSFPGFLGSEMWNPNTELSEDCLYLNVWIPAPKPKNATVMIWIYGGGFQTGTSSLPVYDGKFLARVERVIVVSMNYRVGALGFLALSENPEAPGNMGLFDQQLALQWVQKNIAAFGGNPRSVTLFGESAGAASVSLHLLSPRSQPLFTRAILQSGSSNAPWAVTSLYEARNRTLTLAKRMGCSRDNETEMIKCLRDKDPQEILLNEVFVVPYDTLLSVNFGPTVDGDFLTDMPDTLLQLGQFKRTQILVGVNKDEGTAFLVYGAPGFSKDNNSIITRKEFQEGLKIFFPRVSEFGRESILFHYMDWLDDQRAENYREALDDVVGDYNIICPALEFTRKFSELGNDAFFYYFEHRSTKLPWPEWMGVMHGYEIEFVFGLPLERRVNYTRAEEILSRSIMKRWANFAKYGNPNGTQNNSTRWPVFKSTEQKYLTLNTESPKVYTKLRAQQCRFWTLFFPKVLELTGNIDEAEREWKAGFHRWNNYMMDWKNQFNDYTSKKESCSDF

Acetylcholinesterase, sequence (O42275 whole entry): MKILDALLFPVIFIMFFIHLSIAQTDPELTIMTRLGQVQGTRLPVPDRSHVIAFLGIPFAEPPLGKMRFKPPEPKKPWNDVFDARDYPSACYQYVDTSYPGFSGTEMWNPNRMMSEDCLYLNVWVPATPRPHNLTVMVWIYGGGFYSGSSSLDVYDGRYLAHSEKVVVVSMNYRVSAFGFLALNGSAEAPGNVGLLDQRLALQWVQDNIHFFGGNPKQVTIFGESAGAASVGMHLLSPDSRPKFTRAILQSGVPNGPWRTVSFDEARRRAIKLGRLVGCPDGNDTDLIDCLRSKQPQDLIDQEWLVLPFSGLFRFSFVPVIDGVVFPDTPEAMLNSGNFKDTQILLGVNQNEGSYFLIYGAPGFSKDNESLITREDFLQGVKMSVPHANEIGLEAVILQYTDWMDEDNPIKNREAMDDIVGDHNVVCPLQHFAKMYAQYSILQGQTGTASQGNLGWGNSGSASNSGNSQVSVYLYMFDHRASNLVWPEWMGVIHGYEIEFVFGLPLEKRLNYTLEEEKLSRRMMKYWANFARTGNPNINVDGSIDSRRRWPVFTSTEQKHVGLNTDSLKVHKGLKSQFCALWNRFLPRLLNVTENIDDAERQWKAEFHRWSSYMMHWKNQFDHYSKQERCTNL
Cholinesterase, sequence (P81908 whole entry): as the sequence (P81908 whole entry) above

SMILES | IC50 (Acetylcholinesterase) [nM] | IC50 (Cholinesterase) [nM] | inhibition [1]
O=C1c2ccccc2C(=O)N1CCCCCCCN1CCN(Cc2ccccc2)CC1 | 53.8 |  | 
O=C1c2ccccc2C(=O)N1CCCCCCN1CCN(Cc2ccc(Cl)cc2)CC1 | 389 |  | 
COc1ccc(CN2CCN(CCCCN3C(=O)c4ccccc4C3=O)CC2)cc1 | 403 |  | 
O=C1c2ccccc2C(=O)N1CCCCCCCCCN1CCN(Cc2ccccc2)CC1 | 40.7 | 33.1 | 
O=C1c2ccccc2C(=O)N1CCCCN1CCN(Cc2ccc(Cl)cc2)CC1 | 1420 |  | 
COc1ccc(CN2CCN(C/C=C/CN3C(=O)c4ccccc4C3=O)CC2)cc1 | 489 |  | 
O=C1c2ccccc2C(=O)N1CCCCN1CCN(Cc2ccccc2)CC1 | 18.4 |  | 
O=C1c2ccccc2C(=O)N1CCCCCCCCCCN1CCN(Cc2ccc(Cl)cc2)CC1 | 1260 |  | 
COc1cc2c(cc1OCCCN1CCN(c3ccccc3OC)CC1)C(C)C(C)C(=O)O2 (stereo not drawn) | 36 |  | 
O=C1c2ccccc2C(=O)N1C/C=C/CN1CCN(Cc2ccc(Cl)cc2)CC1 | 384 |  | 
O=C1c2ccccc2C(=O)N1CCCCCCCCN1CCN(Cc2ccc(Cl)cc2)CC1 | 440 |  | 
O=C1c2ccccc2C(=O)N1CCCCCCN1CCN(Cc2ccccc2)CC1 | 100 |  | 
O=C1c2ccccc2C(=O)N1CCCCCCCCCN1CCN(Cc2ccc(Cl)cc2)CC1 | 644 |  | 
COc1ccc(CN2CCN(CCCCCCCCCN3C(=O)c4ccccc4C3=O)CC2)cc1 | 657 |  | 
COc1ccc(CN2CCN(CCCCCCN3C(=O)c4ccccc4C3=O)CC2)cc1 | 687 |  | 
O=C1c2ccccc2C(=O)N1CCCN1CCN(Cc2ccccc2)CC1 | 123 |  | 

SMILES | IC50 (Acetylcholinesterase) [nM] | IC50 (Cholinesterase) [nM] | inhibition [1]
COc1ccc(CN2CCN(CCCCCCCCN3C(=O)c4ccccc4C3=O)CC2)cc1 | 699 |  | 
O=C1c2ccccc2C(=O)N1CCCCCN1CCN(Cc2ccccc2)CC1 | 35.4 |  | 
COc1ccc(CN2CCN(CCCCCCCCCCN3C(=O)c4ccccc4C3=O)CC2)cc1 | 712 |  | 
O=C1c2ccccc2C(=O)N1CCCCCCCCCCN1CCN(Cc2ccccc2)CC1 | 350 |  | 
O=C1c2ccccc2C(=O)N1CCN1CCN(Cc2ccccc2)CC1 | 91.1 |  | 
O=C1c2ccccc2C(=O)N1CCCCCCCCN1CCN(Cc2ccccc2)CC1 | 204 |  | Active
COc1ccc(CN2CCN(CCCCCCCN3C(=O)c4ccccc4C3=O)CC2)cc1 | 448 |  | 
O=C1c2ccccc2C(=O)N1C/C=C/CN1CCN(Cc2ccccc2)CC1 | 13.6 |  | 
COc1ccc(CN2CCN(CCCCCN3C(=O)c4ccccc4C3=O)CC2)cc1 | 548 |  | 
COc1ccc(CN2CCN(CCCN3C(=O)c4ccccc4C3=O)CC2)cc1 | 508 |  | 
O=C1c2ccccc2C(=O)N1CCCN1CCN(Cc2ccc(Cl)cc2)CC1 | 1430 |  | 
O=C1c2ccccc2C(=O)N1CCCCCN1CCN(Cc2ccc(Cl)cc2)CC1 | 720 |  | 
O=C1c2ccccc2C(=O)N1CCCCCCCN1CCN(Cc2ccc(Cl)cc2)CC1 | 655 |  | 
COc1ccc(CN2CCN(CCN3C(=O)c4ccccc4C3=O)CC2)cc1 | 466 |  | 
O=C1c2ccccc2C(=O)N1CCN1CCN(Cc2ccc(Cl)cc2)CC1 | 1100 |  | 
